Assay results: PMC5601180, “Uptake and metabolism of sulphated steroids by the blood–brain barrier in the adult male rat” (Journal of Neurochemistry, 2017)
Where two headings read alike, the source gives them in different places.

Assays:
[1] = rats, ref Kishimoto and Hoshi (1972), cited from earlier work
[2] = TLC analysis of 3H-steroid metabolites in brain fractions after perfusion; assay type: in vivo, rat; settings: after 0.5 min perfusion with the 3H-steroid sulphate
Text: For the analysis of ^3H‐steroid metabolites, samples were spotted onto TLC plates for chromatography in the following solvent systems: A (for sulphated steroids), ethyl acetate:ethanol:ammonia (5 : 5 : 1, v/v); B (for free steroids) cyclohexane:n‐butyl acetate (1 : 2, v/v); C (for acetylated steroids), isooctane:ethyl acetate (13 : 7, v/v). Non‐radioactive steroid standards could be visualised by exposure to iodine vapour whereas the ^3H‐steroids were detected by placing the TLC plates in contact with imaging film for subsequent visualisation in a phosphorimager. Additional analysis of the steroid sulphates employed elution from the TLC plate in ammoniated ethanol then drying down and redissolving in sodium acetate buffer, 0.5 M, pH 5.0 for desulphation by incubation with Helix sulphatase (1 mg/mL, 40°C overnight followed by 55°C for 3 h). The resulting free steroids were adsorbed onto a 60 mg Oasis HLB® cartridge and eluted in 5 mL ethyl acetate. This eluate was dried down and analysed by TLC as above for free steroids. Further identification of ^3H‐steroid metabolites was obtained by acetylating them alongside both ^3H‐labelled and non‐radioactive standards. The TLC eluates or standards were dried down and redissolved in 200 μL pyridine. An equal volume of acetic anhydride was then added followed by incubation at 37°C for 2 h. […]

[3] = Rat brain perfusion in situ: uptake of 3H-steroid sulphates and markers (Vd, Kin, PS); settings: for K in, unidirectional transfer coefficient: 0.5 min perfusion, corrected for vascular space (sucrose Vd), n ≥ 3
Method: Each animal also received intraperitoneal heparin, 10 000 U/kg. Body temperature was maintained at 37°C with a heating pad.
For analysis of free and sulphated steroids and for steryl‐sulfate sulfohydrolase (EC 3.1.6.2; trivial name steroid sulphatase) assays, both hemispheres were perfused, via right and left common carotid arteries, and 0.8 mM MgCl2 replaced 0.8 mM MgSO4 in the solution. The perfusate was delivered at a constant rate of 6 mL/min for hemi‐perfusions and 12 mL/min for bilateral perfusions, maintaining a net perfusion pressure of 40–70 mm Hg.
The remaining tissue of the right hemisphere was homogenised and samples (~50 mg) taken in triplicate (“remainder samples”). Triplicate samples of the perfusate were also taken. Samples were weighed into vials and dissolved (48 h at 20°C) in 0.5 mL Solvable before addition of 4.5 mL Optiphase 2 scintillation fluid for counting of radioactivity.
Brain uptake was calculated as a volume of distribution V d, where V d (μL/g) = (dpm/g tissue)/(dpm/μL perfusate). The unidirectional transfer coefficients, (K in, μL/g/min), for DHEAS and for PregS were calculated from the V d at 0.5 min, corrected with the V d for the vascular space marker sucrose.

[4] = after intracerebral injection, rats; ref Asaba et al. (2000); cited from earlier work
[5] = Bilateral brain perfusion, capillary depletion and separation of free and sulphated 3H-steroids; assay type: in vivo, rat
Method: Brains were bilaterally perfused for 0.5 min with ^3H‐labelled DHEAS 1.25 or 6.0 μCi (0.046 or 0.221 MBq)/mL (13.5 or 64.9 nM) or PregS 1.0 μCi (0.037 MBq)/mL (47.6 nM). The hindbrain was removed and each hemisphere homogenised in 2 vols (w/v) buffer containing (in mM) NaCl 141, KCl 4, NaH2PO4 1, CaCl2 2.8, MgCl2 1, HEPES 10, D‐glucose 10, pH 7.4. A sample of the homogenate of the whole right hemisphere was removed for scintillation counting, and the remainder retained as the whole brain homogenate.
The left hemisphere homogenate was separated into capillary‐enriched and capillary‐depleted fractions by the method of Triguero et al. (1990). For this, an equal volume of 26% dextran (w/w) solution was added to the homogenate and a sample taken for liquid scintillation counting before centrifugation at 5300 g for 15 min at 4°C. The upper layer was taken as the capillary‐depleted fraction and the pellet as the capillary‐enriched fraction.
Before extraction, fractions were sonicated in 5 vols ice‐cold, 5 mM potassium phosphate buffer, pH 7. Small portions (150 μL) were removed for measurement of protein content (Bradford 1976) and total radioactivity. For the latter, homogenate was solubilised (15 min, 20°C) in 10 vols Soluene then bleached (2 h, 50°C) with 0.3 vol hydrogen peroxide before counting in Ecoscint H containing Triton X‐100 (6% v/v), glacial acetic acid (0.6% v/v) and butylated hydroxytoluene (2% w/v). The remainder of each homogenate was extracted as described in detail elsewhere (Ebner et al. 2006; Sujkovic et al. 2009), to give free steroid and steroid sulphate fractions. First, homogenates were extracted into 20 vols ethanol containing acetic acid 3% (v/v). After centrifugation (28 000 g, 30 min, 25°C) to remove denatured protein, the extracts were delipidated by partitioning three times against 10 vols isooctane. Extracts were dried down under vacuum and redissolved in ethanol, which was then diluted to 20% v/v in 5 mM potassium phosphate buffer, pH 7.0 at a total volume of 20 ml. Separation of free and sulphated steroids was achieved by passage through a 60 mg Oasis MAX® cartridge. After washing the cartridge with 5 mL ethanol at 20% v/v in ammonium acetate (20 mM, pH 7), free steroids were eluted in 4 mL ethyl acetate. Passage of 20 mL ethanol at 60% v/v in formate/pyridine buffer (20 mM, pH 3) eluted any steroid glucuronides present. Finally, steroid sulphates were eluted in 30 mL 60% v/v ethanol containing ammonium carbonate 1% (w/v). To measure the radioactivity of each fraction, portions were dried down and then redissolved in Ecoscint H for counting. The remainder was dried down, redissolved in ethanol 96% v/v and stored at −20°C for subsequent analysis by TLC.

[6] = after 0.5 min bilateral perfusion, mean ± SEM, n = 5

C[C@]12CC[C@H](OS(=O)(=O)O)CC1=CCC1C2CC[C@]2(C)C(=O)CCC12 (some centres unmarked) [DHEAS, dehydroepiandrosterone sulphate]
radiolabel accumulating as free steroid in the brain ([1]; intracardiac injection): ~50%
radiolabel accumulating as free steroid in the brain ([1]; intracerebral injection): 5%
metabolism in brain fractions [2]: underwent 17‐hydroxylation to form androstenediol in both the steroid sulphate and the free steroid fractions, with some additional formation of androstenedione in the latter
K in, unidirectional transfer coefficient ([3]; Cerebellum, mean ± SEM): 38.6 ± 7.0 µL/g/min
K in, unidirectional transfer coefficient ([3]; Hippocampus, mean ± SEM): 45.4 ± 3.4 µL/g/min
K in, unidirectional transfer coefficient ([3]; Hypothalamus, mean ± SEM): 57.7 ± 2.7 µL/g/min
K in, unidirectional transfer coefficient ([3]; Medulla, mean ± SEM): 39.4 ± 8.9 µL/g/min
position of log PS in plot against cLog Poct relative to the line for passively permeating compounds ([3]; PS from K in as slope of Vd against time 0.25 to 0.5 min, implies net efflux): below the 95% confidence limits of the line of best fit for passively permeating compounds
K in, unidirectional transfer coefficient ([3]; Parietal cortex, mean ± SEM): 38.4 ± 4.5 µL/g/min
K in, unidirectional transfer coefficient ([3]; Remainder of brain tissue, mean ± SEM): 44.8 ± 4.1 µL/g/min
K in, unidirectional transfer coefficient ([3]; Striatum, mean ± SEM): 47.2 ± 3.9 µL/g/min
K in, unidirectional transfer coefficient ([3]; Sup. colliculus, mean ± SEM): 63.5 ± 6.7 µL/g/min
V d, corrected for sucrose space (vascular volume), control ([3]; brain uptake after 0.5 min perfusion without inhibitors (control of Fig. 3), mean ± SEM, n = 3): 32.47 ± 2.03 µL/g
3H-label appearing in the jugular vein as unchanged steroid sulphate [4]: 90%
radioactivity in capillary fraction [5, 6]: 3451 ± 511 dpm/mg protein
radioactivity in parenchyma fraction [5, 6]: 3279 ± 388 dpm/mg protein
recovery of total homogenate radioactivity into capillary fraction [5, 6]: 2.2 ± 0.3%
recovery of total homogenate radioactivity into parenchyma fraction [5, 6]: 25.7 ± 2.3%
percentage of 3H-label as free steroid, parenchyma versus capillary ([5]; after 0.5 min perfusion, Fig. 4, p < 0.02): significantly higher percentage of the free steroid in the parenchyma than in the brain capillaries
desulphation on uptake into brain ([5]; within 0.5 min of uptake, brain perfusion in situ): > 50%
